From US20080221083A1, “Heterobicyclic metalloprotease inhibitors” (priority 2006, published 2008)

Experiments:
[1] = target: T1, catalytic domain of MMP-13 enzyme (Homo sapiens, UniProt P45452); test: Assay for determining MMP-13 inhibition; format: biochemical; conditions: MMP-13 fluorescent substrate, pH 7.5; read-out: Summary of MMP-13 Activity for Compounds (IC50 MMP-13), Group
T1 construct: catalytic domain of MMP-13 enzyme (produced by Alantos or commercially available from Invitek (Berlin), Cat. No. 30100812); purchased Invitek (Berlin) 30100812
Method: Assay for Determining MMP-13 Inhibition
The typical assay for MMP-13 activity is carried out in assay buffer comprised of 50 mM Tris, pH 7.5, 150 mM NaCl, 5 mM CaCl2 and 0.05% Brij-35. Different concentrations of tested compounds are prepared in assay buffer in 50 μl aliquots. 10 μl of a 50 nM stock solution of catalytic domain of MMP-13 enzyme (produced by Alantos or commercially available from Invitek (Berlin), Cat. No. 30100812) is added to the compound solution. The mixture of enzyme and compound in assay buffer is thoroughly mixed and incubated for 10 min at room temperature. Upon the completion of incubation, the assay is started by addition of 40 μl of a 12.5 μM stock solution of MMP-13 fluorescent substrate (Calbiochem, Cat. No. 444235). The time-dependent increase in fluorescence is measured at the 320 nm excitation and 390 nm emission by automatic plate multireader. The IC50 values are calculated from the initial reaction rates.

[2] = target: T2, catalytic domain of MMP-3 enzyme (Homo sapiens, UniProt P08254); test: Assay for determining MMP-3 inhibition; format: biochemical; conditions: fluorescent substrate NFF-3, pH 6.0; read-out: Summary of MMP-3 Activity for Compounds (IC50 MMP-3), Group
T2 construct: the catalytic domain of MMP-3 enzyme (Biomol, Cat. No. SE-109); purchased Biomol SE-109
T2 sequence (P08254 100-272 limits assumed): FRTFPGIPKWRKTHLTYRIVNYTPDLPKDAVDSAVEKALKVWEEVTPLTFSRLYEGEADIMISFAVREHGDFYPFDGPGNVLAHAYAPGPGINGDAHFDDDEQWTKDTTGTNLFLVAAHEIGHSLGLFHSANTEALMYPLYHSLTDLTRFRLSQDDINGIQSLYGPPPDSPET
Method: Assay for Determining MMP-3 Inhibition
The typical assay for MMP-3 activity is carried out in assay buffer comprised of 50 mM MES, pH 6.0, 10 mM CaCl2 and 0.05% Brij-35. Different concentrations of tested compounds are prepared in assay buffer in 50 μl aliquots. 10 μl of a 100 nM stock solution of the catalytic domain of MMP-3 enzyme (Biomol, Cat. No. SE-109) is added to the compound solution. The mixture of enzyme and compound in assay buffer is thoroughly mixed and incubated for 10 min at room temperature. Upon the completion of incubation, the assay is started by addition of 40 μl of a 12.5 μM stock solution of NFF-3 fluorescent substrate (Calbiochem, Cat. No. 480455). The time-dependent increase in fluorescence is measured at the 330 nm excitation and 390 nm emission by an automatic plate multireader. The IC50 values are calculated from the initial reaction rates.

**Q.** How did the IC50 [1] turn out when O=C1COc2ccc(CNC(=O)c3ncnc4c(C(=O)NCC5CCCCC5)c[nH]c34)cc2N1 [Example 35] was run?
**A.** Its IC50 is 0.101 to 20 µM.

**Q.** And the IC50 [2]?
**A.** Its IC50 is 3 to 100 nM.

**Q.** Which results are given for O=C1COc2ccc(CNC(=O)c3ncnc4c(C(=O)NCc5ccccc5)c[nH]c34)cc2N1 [Example 34]?
**A.** IC50 [1]: 0.101 to 20 µM; IC50 [2]: 3 to 100 nM

**Q.** For CC(C)NC(=O)c1c[nH]c2c(C(=O)NCc3ccc4c(c3)NC(=O)CO4)ncnc12 [Example 32], which IC50 [2] is on record?
**A.** Its IC50 is 101 to 20000 nM.

**Q.** For CNC(=O)c1c[nH]c2c(C(=O)NCc3ccc4c(c3)NC(=O)CO4)ncnc12 [Example 41], which IC50 [2] is on record?
**A.** Its IC50 is 101 to 20000 nM.

**Q.** How did the IC50 [2] turn out when CCCCN(CC)C(=O)c1c[nH]c2c(C(=O)NCc3ccc4c(c3)NC(=O)CO4)ncnc12 [Example 47] was run?
**A.** The IC50 was 3 to 100 nM.

**Q.** For COC(=O)[C@@H]1C[C@@H](O)CN1C(=O)c1c[nH]c2c(C(=O)NCc3ccc4c(c3)NC(=O)CO4)ncnc12 [Example 52], which IC50 [1] is on record?
**A.** The IC50 was 0.101 to 20 µM.

**Q.** And the IC50 [2]?
**A.** The IC50 was 3 to 100 nM.

**Q.** CCCN(CCC)C(=O)c1c[nH]c2c(C(=O)NCc3ccc4c(c3)NC(=O)CO4)ncnc12 [Example 48] was tested. Which IC50 [2] did it give?
**A.** The IC50 was 3 to 100 nM.

**Q.** Which results are given for CC(C)(C)OC(=O)N1CC2CC1CN2C(=O)c1c[nH]c2c(C(=O)NCc3ccc4c(c3)NC(=O)CO4)ncnc12 (stereo not shown) [Example 50]?
**A.** IC50 [1]: 0.101 to 20 µM; IC50 [2]: 3 to 100 nM

**Q.** With O=C1COc2ccc(CNC(=O)c3ncnc4c(C(=O)N5CCC(O)CC5)c[nH]c34)cc2N1 [Example 42] as the compound, how does the IC50 [2] read?
**A.** The IC50 was 101 to 20000 nM.

**Q.** Which results are given for CC(C)(CO)NC(=O)c1c[nH]c2c(C(=O)NCc3ccc4c(c3)NC(=O)CO4)ncnc12 [Example 51]?
**A.** IC50 [1]: 0.101 to 20 µM; IC50 [2]: 3 to 100 nM

**Q.** Which results are given for COc1cccc(CNC(=O)c2c[nH]c3c(C(=O)NCc4ccc5c(c4)NC(=O)CO5)ncnc23)c1 [Example 45]?
**A.** IC50 [1]: 0.101 to 20 µM; IC50 [2]: 101 to 20000 nM

**Q.** Which IC50 [2] does the source give for CCOC(=O)CC1C(=O)NCCN1C(=O)c1c[nH]c2c(C(=O)NCc3ccc4c(c3)NC(=O)CO4)ncnc12 (stereo not shown) [Example 63] here?
**A.** Its IC50 is 101 to 20000 nM.

**Q.** For O=C1COc2ccc(CNC(=O)c3ncnc4c(C(=O)NC5CCCC5)c[nH]c34)cc2N1 [Example 33], which IC50 [2] is on record?
**A.** Its IC50 is 3 to 100 nM.

**Q.** How did the IC50 [2] turn out when C[C@H](NC(=O)c1c[nH]c2c(C(=O)NCc3ccc4c(c3)NC(=O)CO4)ncnc12)c1ccccc1 [Example 61] was run?
**A.** Its IC50 is 101 to 20000 nM.

**Q.** For O=C(NCc1ccccc1)c1c[nH]c2c(C(=O)NCc3ccc(F)cc3)ncnc12 [Example 6], which IC50 [1] is on record?
**A.** The IC50 was 0.101 to 20 µM.

**Q.** And the IC50 [2]?
**A.** The IC50 was 3 to 100 nM.

**Q.** Which results are given for CCC(CC)NC(=O)c1c[nH]c2c(C(=O)NCc3ccc4c(c3)NC(=O)CO4)ncnc12 [Example 31]?
**A.** IC50 [1]: 0.101 to 20 µM; IC50 [2]: 101 to 20000 nM

**Q.** What does the source list for CN(Cc1ccccc1)C(=O)c1c[nH]c2c(C(=O)NCc3ccc4c(c3)NC(=O)CO4)ncnc12 [Example 46]?
**A.** IC50 [1]: 0.101 to 20 µM; IC50 [2]: 3 to 100 nM

**Q.** For C[C@@H](NC(=O)c1c[nH]c2c(C(=O)NCc3ccc4c(c3)NC(=O)CO4)ncnc12)c1ccccc1 [Example 60], which IC50 [2] is on record?
**A.** Its IC50 is 101 to 20000 nM.

**Q.** Which IC50 [1] does the source give for O=C1COc2ccc(CNC(=O)c3ncnc4c(C(=O)NCC5(O)CCCCC5)c[nH]c34)cc2N1 [Example 40] here?
**A.** The IC50 was 0.101 to 20 µM.

**Q.** What about the IC50 [2] of the same compound?
**A.** Its IC50 is 101 to 20000 nM.

**Q.** Which results are given for O=C1CN(C(=O)c2c[nH]c3c(C(=O)NCc4ccc5c(c4)NC(=O)CO5)ncnc23)CCN1 [Example 62]?
**A.** IC50 [1]: 0.101 to 20 µM; IC50 [2]: 3 to 100 nM
